Test results as given in ChEMBL document CHEMBL4602687, “Dual Binding to Orthosteric and Allosteric Sites Enhances the Anticancer Activity of a TRAP1-Targeting Drug” (J Med Chem, 2020).
Numbering of substitutions follows the chain as printed. The source made the active and inactive calls.

Assays:
[1] = system: T1, Heat shock protein 75 kDa, mitochondrial (Homo sapiens), Q12931 [R402Q]; assay: Stimulation of recombinant […] human TRAP1 R402Q mutant ATPase activity expressed in Escherichia coli BL21 (DE3) up to 20 uM preincubated for 0.5 hrs followed by ATP addition and measured after 3 hrs by PiColorLock Gold reagent based colorimetric assay
T1 sequence (whole entry): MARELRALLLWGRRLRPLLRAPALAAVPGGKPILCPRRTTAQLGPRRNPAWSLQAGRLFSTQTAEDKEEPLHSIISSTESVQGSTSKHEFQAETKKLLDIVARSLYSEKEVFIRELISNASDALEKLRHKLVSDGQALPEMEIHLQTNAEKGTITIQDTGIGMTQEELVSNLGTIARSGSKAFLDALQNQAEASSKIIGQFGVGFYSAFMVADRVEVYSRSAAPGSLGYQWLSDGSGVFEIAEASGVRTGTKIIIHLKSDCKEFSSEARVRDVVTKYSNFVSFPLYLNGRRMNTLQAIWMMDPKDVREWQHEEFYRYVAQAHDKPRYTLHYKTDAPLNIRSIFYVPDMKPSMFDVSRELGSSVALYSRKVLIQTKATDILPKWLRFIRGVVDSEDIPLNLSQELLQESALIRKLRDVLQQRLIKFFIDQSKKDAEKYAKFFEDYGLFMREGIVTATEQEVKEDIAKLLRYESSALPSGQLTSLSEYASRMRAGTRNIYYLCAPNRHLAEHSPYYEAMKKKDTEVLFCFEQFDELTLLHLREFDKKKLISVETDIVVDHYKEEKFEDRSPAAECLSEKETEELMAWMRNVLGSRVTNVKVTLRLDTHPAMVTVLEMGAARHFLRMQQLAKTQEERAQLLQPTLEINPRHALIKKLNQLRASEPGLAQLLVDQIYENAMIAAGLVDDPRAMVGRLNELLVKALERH

[2] = molecular target: T2, Heat shock protein 75 kDa, mitochondrial (Homo sapiens) (UniProt Q12931); assay: Inhibition of TRAP1 in human PC3 cells assessed as loss of mitochondrial membrane potential at 10 uM measured after 2 hrs by TMRM dye based flow cytometry; assay type: cell-based; conditions: PC-3
T2 sequence (whole entry): T1 sequence (whole entry) with Q402R

[3] = system: T3, Heat shock protein 75 kDa, mitochondrial (Homo sapiens), Q12931 [E403K]; assay: Inhibition of recombinant wild-type human TRAP1 E403K mutant ATPase activity expressed in Escherichia coli BL21 (DE3) up to 20 uM preincubated for 0.5 hrs followed by ATP addition and measured after 3 hrs by PiColorLock Gold reagent based colorimetric assay
T3 sequence (whole entry): T1 sequence (whole entry) with Q402R, E403K

Nc1ncnc2c1nc(Sc1cc3c(cc1I)OCO3)n2CCCCCCCCCC[P+](c1ccccc1)(c1ccccc1)c1ccccc1
active: Activity [1] | inhibition [2] | inhibition [3]
